Measured values taken from patent US20250154686A1, “COMPOUND LIBRARY” (CHUGAI SEIYAKU KABUSHIKI KAISHA, priority 2021, published 2025).

Target: T1, Bcl-2 protein (Recombinant Human Bcl-2 Protein) (Homo sapiens, UniProt P10415)
T1 construct: purchased Novus Biologicals NBP2-34889
Assay: AS-MS evaluation of binding of the Example 4 mixture library (1200 compounds/well) to Bcl-2, ASMS ratio (%)
Settings: mixture library, value belongs to the MS peak assigned to the compound; for ASMS ratio (%) n = 1: replicate n = 1; for ASMS ratio (%) n = 2: replicate n = 2
Summary of the method: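 Recombinant human Bcl-2 at 20 μM final was exposed to a 1200-member compound pool (20 nM per compound) in pH 7.4 Tris-HCl buffer containing NaCl, Tween-20 and DTT. After 1 h at 23 °C, protein–ligand complexes passed SEC spin columns; LC/MS signals were compared with protein-free standard and blank samples to give ASMS ratio.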

T1 sequence (P10415 whole entry): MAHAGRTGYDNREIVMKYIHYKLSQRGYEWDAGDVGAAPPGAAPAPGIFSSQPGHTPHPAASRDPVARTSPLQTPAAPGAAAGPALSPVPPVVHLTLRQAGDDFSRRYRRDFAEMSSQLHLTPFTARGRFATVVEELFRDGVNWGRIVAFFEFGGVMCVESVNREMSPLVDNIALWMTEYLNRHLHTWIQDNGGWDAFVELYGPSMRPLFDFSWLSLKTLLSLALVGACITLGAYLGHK

Row | Structure (SMILES) | ASMS ratio (%) n = 1 | ASMS ratio (%) n = 2
1 | CCOc1cccc(C#Cc2cc(C(=O)N3CCN(c4ccc(C(=O)NS(=O)(=O)C(C)(C)C)cc4)CC3)cc(C(F)(F)F)c2)c1 [Compound B2L041-01, N-tert-Butylsulfonyl-4-[4-[3-[2-(3-ethoxyphenyl)ethynyl]-5-(trifluoromethyl)benzoyl]piperazin-1-yl]benzamide] | 0.0% | –
2 | CCOc1cncc(C#Cc2cc(C(=O)N3CCN(c4ccc(C(=O)NS(=O)(=O)C(C)(C)C)cc4)CC3)cc(C(F)(F)F)c2)c1 [Compound B2L042-01, N-tert-Butylsulfonyl-4-[4-[3-[2-(5-ethoxypyridin-3-yl)ethynyl]-5-(trifluoromethyl)benzoyl]piperazin-1-yl]benzamide] | 0.0% | 0.0%
3 | CCOc1cccc(-c2cnn(-c3cc(C(=O)N4CCN(c5ccc(C(=O)NS(=O)(=O)C(C)(C)C)cc5)CC4)cc(C(F)(F)F)c3)c2)c1 [Compound B2L043-01, N-tert-Butylsulfonyl-4-[4-[3-[4-(3-ethoxyphenyl)pyrazol-1-yl]-5-(trifluoromethyl)benzoyl]piperazin-1-yl]benzamide] | 0.0% | 0.0%
4 | CCOc1cncc(-c2cnn(-c3cc(C(=O)N4CCN(c5ccc(C(=O)NS(=O)(=O)C(C)(C)C)cc5)CC4)cc(C(F)(F)F)c3)c2)c1 [Compound B2L044-01, N-tert-Butylsulfonyl-4-[4-[3-[4-(5-ethoxypyridin-3-yl)pyrazol-1-yl]-5-(trifluoromethyl)benzoyl]piperazin-1-yl]benzamide] | 0.0% | 0.0%
5 | CCOc1cccc(-c2ccccc2CN2CCN(c3ccc(C(=O)NS(=O)(=O)C(C)(C)C)cc3)CC2)c1 [Compound B2L045-01, N-tert-Butylsulfonyl-4-[4-[[2-(3-ethoxyphenyl)phenyl]methyl]piperazin-1-yl]benzamide] | 0.0% | 0.0%
6 | CCOc1cncc(-c2ccccc2CN2CCN(c3ccc(C(=O)NS(=O)(=O)C(C)(C)C)cc3)CC2)c1 [Compound B2L046-01] | 0.0% | 0.0%
7 | CCOc1cccc(-c2ccc(CN3CCN(c4ccc(C(=O)NS(=O)(=O)C(C)(C)C)cc4)CC3)cc2C)c1 [Compound B2L047-01, N-tert-Butylsulfonyl-4-[4-[[4-(3-ethoxyphenyl)-3-methylphenyl]methyl]piperazin-1-yl]benzamide] | 0.0% | 0.0%
8 | CCOc1cncc(-c2ccc(CN3CCN(c4ccc(C(=O)NS(=O)(=O)C(C)(C)C)cc4)CC3)cc2C)c1 [Compound B2L048-01, N-tert-Butylsulfonyl-4-[4-[[4-(5-ethoxypyridin-3-yl)-3-methylphenyl]methyl]piperazin-1-yl]benzamide] | 3.9% | −5.0%
9 | CCOc1cccc(-c2ccc(CN3CCN(c4ccc(C(=O)NS(=O)(=O)C(C)(C)C)cc4)CC3)c(CC)c2)c1 [Compound B2L049-01, N-tert-Butylsulfonyl-4-[4-[[4-(3-ethoxyphenyl)-2-ethylphenyl]methyl]piperazin-1-yl]benzamide] | – | 0.0%
10 | CCOc1cncc(-c2ccc(CN3CCN(c4ccc(C(=O)NS(=O)(=O)C(C)(C)C)cc4)CC3)c(CC)c2)c1 [Compound B2L050-01, N-tert-Butylsulfonyl-4-[4-[[4-(5-ethoxypyridin-3-yl)-2-ethylphenyl]methyl]piperazin-1-yl]benzamide] | 0.0% | 0.0%
11 | CCOc1cccc(-c2ccc(CN3CCN(c4ccc(C(=O)NS(=O)(=O)C(C)(C)C)cc4)CC3)cc2F)c1 [Compound B2L051-01, N-tert-Butylsulfonyl-4-[4-[[4-(3-ethoxyphenyl)-3-fluorophenyl]methyl]piperazin-1-yl]benzamide] | 0.0% | 0.0%
12 | CCOc1cncc(-c2ccc(CN3CCN(c4ccc(C(=O)NS(=O)(=O)C(C)(C)C)cc4)CC3)cc2F)c1 [Compound B2L052-01, N-tert-Butylsulfonyl-4-[4-[[4-(5-ethoxypyridin-3-yl)-3-fluorophenyl]methyl]piperazin-1-yl]benzamide] | 2.7% | 1.0%
13 | CCOc1cccc(-c2ccc(CN3CCN(c4ccc(C(=O)NS(=O)(=O)C(C)(C)C)cc4)CC3)c(OC)c2)c1 [Compound B2L053-01] | 0.0% | 0.0%
14 | CCOc1cncc(-c2ccc(CN3CCN(c4ccc(C(=O)NS(=O)(=O)C(C)(C)C)cc4)CC3)c(OC)c2)c1 [Compound B2L054-01] | 0.0% | 0.0%
15 | CCOc1cccc(-c2cc(CN3CCN(c4ccc(C(=O)NS(=O)(=O)C(C)(C)C)cc4)CC3)cc(OCC)c2)c1 [Compound B2L055-01, N-tert-Butylsulfonyl-4-[4-[[3-ethoxy-5-(3-ethoxyphenyl)phenyl]methyl]piperazin-1-yl]benzamide] | 0.0% | 0.0%
16 | CCOc1cncc(-c2cc(CN3CCN(c4ccc(C(=O)NS(=O)(=O)C(C)(C)C)cc4)CC3)cc(OCC)c2)c1 [Compound B2L056-01] | 0.0% | 0.0%

Row | Structure (SMILES) | ASMS ratio (%) n = 1 | ASMS ratio (%) n = 2
17 | CCOc1cccc(-c2cc(CN3CCN(c4ccc(C(=O)NS(=O)(=O)C(C)(C)C)cc4)CC3)cc(OC(C)C)c2)c1 [Compound B2L057-01, N-tert-Butylsulfonyl-4-[4-[3-(3-ethoxyphenyl)-5-propan-2-yloxyphenylmethyl]piperazin-1-yl]benzamide] | 0.0% | 0.0%
18 | CCOc1cncc(-c2cc(CN3CCN(c4ccc(C(=O)NS(=O)(=O)C(C)(C)C)cc4)CC3)cc(OC(C)C)c2)c1 [Compound B2L058-01] | 0.0% | 0.0%
19 | CCOc1cccc(-c2cc(OC)c(CN3CCN(c4ccc(C(=O)NS(=O)(=O)C(C)(C)C)cc4)CC3)c(OC)c2)c1 [Compound B2L059-01, N-tert-Butylsulfonyl-4-[4-[[4-(3-ethoxyphenyl)-2,6-dimethoxyphenyl]methyl]piperazin-1-yl]benzamide] | 0.0% | 0.0%
20 | CCOc1cncc(-c2cc(OC)c(CN3CCN(c4ccc(C(=O)NS(=O)(=O)C(C)(C)C)cc4)CC3)c(OC)c2)c1 [Compound B2L060-01] | – | 0.0%
21 | CCOc1cccc(-c2cc(CN3CCN(c4ccc(C(=O)NS(=O)(=O)C(C)(C)C)cc4)CC3)cc(C(F)(F)F)c2)c1 [Compound B2L061-01, N-tert-Butylsulfonyl-4-[4-[[3-(3-ethoxyphenyl)-5-(trifluoromethyl)phenyl]methyl]piperazin-1-yl]benzamide] | 4.6% | −11.1%
22 | CCOc1cncc(-c2cc(CN3CCN(c4ccc(C(=O)NS(=O)(=O)C(C)(C)C)cc4)CC3)cc(C(F)(F)F)c2)c1 [Compound B2L062-01, N-tert-Butylsulfonyl-4-[4-[[3-(5-ethoxypyridin-3-yl)-5-(trifluoromethyl)phenyl]methyl]piperazin-1-yl]benzamide] | 0.0% | 0.0%
23 | CCOc1cccc(-c2cc(CN3CCN(c4ccc(C(=O)NS(=O)(=O)C(C)(C)C)cc4)CC3)cc(OC(F)(F)F)c2)c1 [Compound B2L063-01, N-tert-Butylsulfonyl-4-[4-[[3-(3-ethoxyphenyl)-5-(trifluoromethoxy)phenyl]methyl]piperazin-1-yl]benzamide] | 0.0% | 0.0%
24 | CCOc1cncc(-c2cc(CN3CCN(c4ccc(C(=O)NS(=O)(=O)C(C)(C)C)cc4)CC3)cc(OC(F)(F)F)c2)c1 [Compound B2L064-01] | 0.0% | 0.0%
25 | CCOc1cncc(-c2ccc(CN3CCN(c4ccc(C(=O)NS(=O)(=O)C(C)(C)C)cc4)CC3)c3ccccc23)c1 [Compound B2L066-01, N-tert-Butylsulfonyl-4-[4-[[4-(5-ethoxypyridin-3-yl)naphthalen-1-yl]methyl]piperazin-1-yl]benzamide] | 0.0% | 0.0%
26 | CCOc1cccc(-c2csc(CN3CCN(c4ccc(C(=O)NS(=O)(=O)C(C)(C)C)cc4)CC3)c2)c1 [Compound B2L067-01] | 0.0% | 0.0%
27 | CCOc1cncc(-c2csc(CN3CCN(c4ccc(C(=O)NS(=O)(=O)C(C)(C)C)cc4)CC3)c2)c1 [Compound B2L068-01] | 0.0% | 0.0%
28 | CCOc1cccc(C#Cc2ccccc2CN2CCN(c3ccc(C(=O)NS(=O)(=O)C(C)(C)C)cc3)CC2)c1 [Compound B2L069-01, N-tert-Butylsulfonyl-4-[4-[[2-[2-(3-ethoxyphenyl)ethynyl]phenyl]methyl]piperazin-1-yl]benzamide] | 0.0% | 0.0%
29 | CCOc1cncc(C#Cc2ccccc2CN2CCN(c3ccc(C(=O)NS(=O)(=O)C(C)(C)C)cc3)CC2)c1 [Compound B2L070-01] | 4.9% | −4.2%
30 | CCOc1cccc(-c2ccccc2CN2CCN(c3ccc(C(=O)NS(=O)(=O)C(C)(C)C)nn3)CC2)c1 [Compound B2L071-01, N-tert-Butylsulfonyl-6-[4-[2-(3-ethoxyphenyl)phenyl]methyl]piperazin-1-yllpyridazine-3-carboxamide] | 1.2% | 0.0%
31 | CCOc1cncc(-c2ccccc2CN2CCN(c3ccc(C(=O)NS(=O)(=O)C(C)(C)C)nn3)CC2)c1 [Compound B2L072-01, N-tert-Butylsulfonyl-6-[4-[[2-(5-ethoxypyridin-3-yl)phenyl]methyl]piperazin-1-yl]pyridazine-3-carboxamide] | −10.7% | 8.3%
